# Assay results reported in patent US11622970B2, “BCL-2 inhibitors and their use as pharmaceuticals” (PRELUDE THERAPEUTICS INCORPORATED, priority 2020, dated 2023).
# Target: BCL-2 recombinant protein (Homo sapiens, UniProt P10415)
# Assay: Cell free Bcl-2:Bak affinity assay (Bcl-2 Bak), HTRF competition of FAM-Bak peptide
# Format: binding
# Details: 1 μM compound, 4 nM BCL-2 recombinant protein, 100 nM FAM-Bak, read-out: potency (% inhibition at 1 μM)
# Description: Biological Assays: Cell Free Bcl-2:Bak Affinity Assay (Bcl-2 Bak)
# The assay is based on the competition of fluorescently labeled peptide binding to BCL-2 and the binding is monitored by HTRF signals between anti-GST-Tb and FAM-peptide using GST-Tag BCL proteins. Testing compounds were dissolved in DMSO at 10 mM and tested in 10-concentration IC50 mode. The compounds of interest in DMSO were added in 3-fold serial dilution to each well containing 4 nM of BCL-2 recombinant protein, 20 mM K Phosphate, pH 7.5, 50 mM NaCl, 1 mM EDTA, 0.005% Triton X-100, by using acoustic technology (Labcyte echo 550), After 10 minutes incubation at room temperature, 100 nM of FAM-Bak was added and incubated for another 10 minutes before addition of Anti-GST-Tb. The plate was then sealed and further incubated at room temperature for 60 minutes in the dark before reading. Percentage of inhibition was calculated by % inhibition=100×(FDMSO−F)/(FDMSO−FPC), in which FDMSO is DMSO control and FPC is a positive control. IC50 values were determined from dose-response curve by fitting the percent inhibition against compound concentration using GraphPad Prism software.
# BCL-2 recombinant protein, sequence (P10415 whole entry): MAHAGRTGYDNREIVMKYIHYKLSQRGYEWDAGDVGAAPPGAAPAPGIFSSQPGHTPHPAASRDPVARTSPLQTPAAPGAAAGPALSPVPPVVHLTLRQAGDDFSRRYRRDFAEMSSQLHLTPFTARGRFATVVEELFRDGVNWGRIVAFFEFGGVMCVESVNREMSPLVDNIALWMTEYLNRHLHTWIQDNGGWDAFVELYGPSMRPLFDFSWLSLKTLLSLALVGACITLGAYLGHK
row,Compound,inhibition at 1 µM
1,"CC1(C)CCC(CN2CCN(c3ccc(S(=O)(=O)NC(=O)c4ccc([N+](=O)[O-])c(Cl)n4)cc3)CC2)=C(c2ccc(Cl)cc2)C1 [Example 2, 6-chloro-N-[4-[4-[[2-(4-chlorophenyl)-4,4-dimethylcyclohexen-1-yl]methyl]piperazin-1-yl]phenyl]sulfonyl-5-nitropyridine-2-carboxamide]",50 to 90%
2,"Cc1c(C(=O)NS(=O)(=O)c2ccc(N3CCN(CC4=C(c5ccc(Cl)cc5)CC(C)(C)CC4)CC3)cc2)nnn1Cc1ccccc1 [Example 4, 1-benzyl-N-[4-[4-[[2-(4-chlorophenyl)-4,4-dimethylcyclohexen-1-yl]methyl]piperazin-1-yl]phenyl]sulfonyl-5-methyl-1H-1,2,3-triazole-4-carboxamide]",50 to 90%
3,"CC1(C)CCC(CN2CCN(c3ccc(S(=O)(=O)NC(=O)c4cnccn4)cc3)CC2)=C(c2ccc(Cl)cc2)C1 [Example 6, N-([4-[4-[[2-(4-chlorophenyl)-4,4-dimethylcyclohexen-1-yl]methyl]piperazin-1-yl]phenyl]sulfonyl)pyrazine-2-carboxamide]",50 to 90%
4,"CC1(C)CCC(CN2CCN(c3ccc(S(=O)(=O)NC(=O)C45CC(C4)C5)cc3)CC2)=C(c2ccc(Cl)cc2)C1 [Example 7, N-([4-[4-[[2-(4-chlorophenyl)-4,4-dimethylcyclohexen-1-yl]methyl]piperazin-1-yl]phenyl]sulfonyl)bicyclo[1.1.1]pentane-1-carboxamide]",50 to 90%
5,"Cc1ncc(C(=O)NS(=O)(=O)c2ccc(N3CCN(CC4=C(c5ccc(Cl)cc5)CC(C)(C)CC4)CC3)cc2)cn1 [Example 8, N-([4-[4-[[2-(4-chlorophenyl)-4,4-dimethylcyclohexen-1-yl]methyl]piperazin-1-yl]phenyl]sulfonyl)-2-methylpyrimidine-5-carboxamide]",50 to 90%
6,"CC1(C)CCC(CN2CCN(c3ccc(S(=O)(=O)NC(=O)c4cc(C5CC5)on4)cc3)CC2)=C(c2ccc(Cl)cc2)C1 [Example 12, N-([4-[4-[[2-(4-chlorophenyl)-4,4-dimethylcyclohexen-1-yl]methyl]piperazin-1-yl]phenyl]sulfonyl)-5-cyclopropylisoxazole-3-carboxamide]",< 50%
7,"Cc1cc(C(=O)NS(=O)(=O)c2ccc(N3CCN(CC4=C(c5ccc(Cl)cc5)CC(C)(C)CC4)CC3)cc2)[nH]n1 [Example 14, N-([4-[4-[[2-(4-chlorophenyl)-4,4-dimethylcyclohexen-1-yl]methyl]piperazin-1-yl]phenyl]sulfonyl)-3-methyl-1H-pyrazole-5-carboxamide]",50 to 90%
8,"Cc1onc(C(=O)NS(=O)(=O)c2ccc(N3CCN(CC4=C(c5ccc(Cl)cc5)CC(C)(C)CC4)CC3)cc2)c1C [Example 17, N-([4-[4-[[2-(4-chlorophenyl)-4,4-dimethylcyclohexen-1-yl]methyl]piperazin-1-yl]phenyl]sulfonyl)-4,5-dimethylisoxazole-3-carboxamide]",50 to 90%
9,"CC1(C)CCC(CN2CCN(c3ccc(S(=O)(=O)NC(=O)c4cccc(C(F)(F)F)n4)cc3)CC2)=C(c2ccc(Cl)cc2)C1 [Example 21, N-([4-[4-[[2-(4-chlorophenyl)-4,4-dimethylcyclohexen-1-yl]methyl]piperazin-1-yl]phenyl]sulfonyl)-6-(trifluoromethyl)pyridine-2-carboxamide]",50 to 90%
10,"CC1(C)CCC(CN2CCN(c3ccc(S(=O)(=O)NC(=O)c4ccncc4C(F)(F)F)cc3)CC2)=C(c2ccc(Cl)cc2)C1 [Example 22, N-([4-[4-[[2-(4-chlorophenyl)-4,4-dimethylcyclohexen-1-yl]methyl]piperazin-1-yl]phenyl]sulfonyl)-3-(trifluoromethyl)pyridine-4-carboxamide]",50 to 90%
11,"CC1(C)CCC(CN2CCN(c3ccc(S(=O)(=O)NC(=O)c4cncc([N+](=O)[O-])c4)cc3)CC2)=C(c2ccc(Cl)cc2)C1 [Example 23, N-([4-[4-[[2-(4-chlorophenyl)-4,4-dimethylcyclohexen-1-yl]methyl]piperazin-1-yl]phenyl]sulfonyl)-5-nitropyridine-3-carboxamide]",50 to 90%
12,"CC1(C)CCC(CN2CCN(c3ccc(S(=O)(=O)NC(=O)c4cc(-c5ccc(F)cc5)no4)cc3)CC2)=C(c2ccc(Cl)cc2)C1 [Example 25, N-([4-[4-[[2-(4-chlorophenyl)-4,4-dimethylcyclohexen-1-yl]methyl]piperazin-1-yl]phenyl]sulfonyl)-3-(4-fluorophenyl)isoxazole-5-carboxamide]",50 to 90%

# Second part, the compound after the results:
row,inhibition at 1 µM,Compound
1,50 to 90%,"CC1(C)CCC(CN2CCN(c3ccc(S(=O)(=O)NC(=O)c4ccc(F)c(Cl)n4)cc3)CC2)=C(c2ccc(Cl)cc2)C1 [Example 1, 6-Chloro-N-[4-[4-[[2-(4-chlorophenyl)-4,4-dimethylcyclohexen-1-yl]methyl]piperazin-1-yl]phenyl]sulfonyl-5-fluoropyridine-2-carboxamide]"
2,50 to 90%,"CC1(C)CCC(CN2CCN(c3ccc(S(=O)(=O)NC(=O)c4ccc5sccc5c4)cc3)CC2)=C(c2ccc(Cl)cc2)C1 [Example 3, N-[4-[4-[[2-(4-chlorophenyl)-4,4-dimethylcyclohexen-1-yl]methyl]piperazin-1-yl]phenyl]sulfonylbenzo[b]thiophene-5-carboxamide]"
3,50 to 90%,"CC1(C)CCC(CN2CCN(c3ccc(S(=O)(=O)NC(=O)c4ccc5ncccc5c4)cc3)CC2)=C(c2ccc(Cl)cc2)C1 [Example 5, N-([4-[4-[[2-(4-chlorophenyl)-4,4-dimethylcyclohexen-1-yl]methyl]piperazin-1-yl]phenyl]sulfonyl)quinoline-6-carboxamide]"
4,50 to 90%,"CC1(C)CCC(CN2CCN(c3ccc(S(=O)(=O)NC(=O)c4cnc5ccccc5c4)cc3)CC2)=C(c2ccc(Cl)cc2)C1 [Example 9, N-((4-(4-((4′-chloro-5,5-dimethyl-3,4,5,6-tetrahydro-[1,1′-biphenyl]-2-yl)methyl)piperazin-1-yl)phenyl)sulfonyl)quinoline-3-carboxamide]"
5,50 to 90%,"CN1C(=O)CCc2cc(C(=O)NS(=O)(=O)c3ccc(N4CCN(CC5=C(c6ccc(Cl)cc6)CC(C)(C)CC5)CC4)cc3)ccc21 [Example 10, N-([4-[4-[[2-(4-chlorophenyl)-4,4-dimethylcyclohexen-1-yl]methyl]piperazin-1-yl]phenyl]sulfonyl)-1-methyl-2-oxo-1,2,3,4-tetrahydroquinoline-6-carboxamide]"
6,50 to 90%,"COc1ccccc1C(=O)NS(=O)(=O)c1ccc(N2CCN(CC3=C(c4ccc(Cl)cc4)CC(C)(C)CC3)CC2)cc1 [Example 11, N-([4-[4-[[2-(4-chlorophenyl)-4,4-dimethylcyclohexen-1-yl]methyl]piperazin-yl]phenyl]sulfonyl)-2-methoxybenzamide]"
7,50 to 90%,"CC1(C)CCC(CN2CCN(c3ccc(S(=O)(=O)NC(=O)c4ccc(Br)cn4)cc3)CC2)=C(c2ccc(Cl)cc2)C1 [Example 13, 5-bromo-N-([4-[4-[[2-(4-chlorophenyl)-4,4-dimethylcyclohexen-1-yl]methyl]piperazin-1-yl]phenyl]sulfonyl)pyridine-2-carboxamide]"
8,50 to 90%,"CC1(C)CCC(CN2CCN(c3ccc(S(=O)(=O)NC(=O)c4cccc(Cl)c4)cc3)CC2)=C(c2ccc(Cl)cc2)C1 [Example 15, 3-chloro-N-([4-[4-[[2-(4-chlorophenyl)-4,4-dimethylcyclohexen-1-yl]methyl]piperazin-1-yl]phenyl]sulfonyl)benzamide]"
9,50 to 90%,"Cc1nc(C(=O)NS(=O)(=O)c2ccc(N3CCN(CC4=C(c5ccc(Cl)cc5)CC(C)(C)CC4)CC3)cc2)ccc1F [Example 16, N-([4-[4-[[2-(4-chlorophenyl)-4,4-dimethylcyclohexen-1-yl]methyl]piperazin-1-yl]phenyl]sulfonyl)-5-fluoro-6-methyl pyridine-2-carboxamide]"
10,50 to 90%,"COCc1cccc(C(=O)NS(=O)(=O)c2ccc(N3CCN(CC4=C(c5ccc(Cl)cc5)CC(C)(C)CC4)CC3)cc2)c1 [Example 18, N-([4-[4-[[2-(4-chlorophenyl)-4,4-dimethylcyclohexen-1-yl]methyl]piperazin-1-yl]phenyl]sulfonyl)-3-(methoxymethyl)benzamide]"
11,50 to 90%,"COCc1ccc(C(=O)NS(=O)(=O)c2ccc(N3CCN(CC4=C(c5ccc(Cl)cc5)CC(C)(C)CC4)CC3)cc2)cc1 [Example 19, N-([4-[4-[[2-(4-chlorophenyl)-4,4-dimethylcyclohexen-1-yl]methyl]piperazin-1-yl]phenyl]sulfonyl)-4-(methoxymethyl)benzamide]"
12,50 to 90%,"CC1(C)CCC(CN2CCN(c3ccc(S(=O)(=O)NC(=O)c4ccc(Cl)c(Cl)n4)cc3)CC2)=C(c2ccc(Cl)cc2)C1 [Example 20, 5,6-dichloro-N-([4-[4-[[2-(4-chlorophenyl)-4,4-dimethylcyclohexen-1-yl]methyl]piperazin-1-yl]phenyl]sulfonyl)pyridine-2-carboxamide]"
13,50 to 90%,"CC1(C)CCC(CN2CCN(c3ccc(S(=O)(=O)NC(=O)c4ccccn4)cc3)CC2)=C(c2ccc(Cl)cc2)C1 [Example 24, N-([4-[4-[[2-(4-chlorophenyl)-4,4-dimethylcyclohexen-1-yl]methyl]piperazin-1-yl]phenyl]sulfonyl)pyridine-2-carboxamide]"
